Measurements: ChEMBL document CHEMBL1201862, “PubChem BioAssay data set” (2004)
Activity calls are given as the source filed them.

Tests used:
[1] = target: G-protein coupled receptor 35 (Homo sapiens, UniProt Q9HC97); experiment: GPR35 antagonists blocking zaprinast-driven arrestin recruitment, primary screen, imaging, U2OS, beta-arrestin-GFP, zaprinast agonist (AID 2058); type: functional;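 note: antagonist potency meaning inhibition of agonist-induced arrestin redistribution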
[2] = Counterscreen for IDE inhibitors: Luminescence-based cell-based high throughput dose response assay to identify compounds that are cytotoxic to HEK cells. [Related pubchem assays: 434962 (Primary screen (IDE inhibitors in singlicate)), 449730 (Counterscreen (Cytotoxicity in triplicate)), 435028 (Confirmation (IDE inhibitors in triplicate)) …; type: functional; conditions: HEK293
Insulin-degrading enzyme = target: T1, Insulin-degrading enzyme (Homo sapiens, UniProt P14735); experiment: Dose Response: Fluorescence polarization-based cell-based high throughput dose response assay for inhibitors of insulin-degrading enzyme (IDE). [Related pubchem assays: 434962 (Primary screen (IDE inhibitors in singlicate)), 449730 (Counterscreen (Cytotoxicity in triplicate)), 435028 (Confirmation (IDE inhibitors in triplicate)), 434984 (Summary …; type: functional
T1 sequence (P14735 whole entry): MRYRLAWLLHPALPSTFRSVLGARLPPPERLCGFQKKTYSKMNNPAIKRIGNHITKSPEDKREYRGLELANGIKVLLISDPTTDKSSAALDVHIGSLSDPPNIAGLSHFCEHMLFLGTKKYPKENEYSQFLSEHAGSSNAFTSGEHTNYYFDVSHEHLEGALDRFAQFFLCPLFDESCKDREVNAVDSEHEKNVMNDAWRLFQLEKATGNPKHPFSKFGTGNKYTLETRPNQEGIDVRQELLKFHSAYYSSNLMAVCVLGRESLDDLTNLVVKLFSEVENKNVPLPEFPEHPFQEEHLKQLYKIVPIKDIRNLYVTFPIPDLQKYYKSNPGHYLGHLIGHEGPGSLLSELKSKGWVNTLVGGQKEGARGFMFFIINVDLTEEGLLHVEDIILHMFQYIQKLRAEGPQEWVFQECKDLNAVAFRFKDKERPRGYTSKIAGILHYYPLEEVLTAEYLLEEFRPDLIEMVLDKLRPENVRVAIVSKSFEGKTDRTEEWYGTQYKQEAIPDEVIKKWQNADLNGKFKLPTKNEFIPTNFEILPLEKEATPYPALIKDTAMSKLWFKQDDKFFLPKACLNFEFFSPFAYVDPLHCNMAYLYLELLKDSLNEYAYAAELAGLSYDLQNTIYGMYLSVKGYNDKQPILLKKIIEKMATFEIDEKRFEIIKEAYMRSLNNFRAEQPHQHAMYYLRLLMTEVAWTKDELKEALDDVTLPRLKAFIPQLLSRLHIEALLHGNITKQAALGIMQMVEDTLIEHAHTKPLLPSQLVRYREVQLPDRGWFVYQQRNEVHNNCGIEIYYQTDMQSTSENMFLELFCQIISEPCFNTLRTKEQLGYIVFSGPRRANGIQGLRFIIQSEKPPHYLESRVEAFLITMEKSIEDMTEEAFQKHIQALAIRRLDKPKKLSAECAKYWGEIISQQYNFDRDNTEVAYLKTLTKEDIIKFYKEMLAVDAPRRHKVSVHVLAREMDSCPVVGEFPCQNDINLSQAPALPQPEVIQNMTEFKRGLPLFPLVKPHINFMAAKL

[3] = enhancers of respiration in Yfh1-depleted yeast, dose response, Friedreich's ataxia, plus single-dose screen (AID 1465); type: functional;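 note: yeast depleted of Yfh1p frataxin homolog grown on glycerol needing respiration; WST-1 tetrazolium dye reduction as measure of cellular dehydrogenase metabolic activity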
Staphylococcus aureus = experiment: Inhibitors of Bacterial Quorum Sensing Structure Activity Relationship (SAR) Analysis: Dose Response Assay. [Related pubchem assays: 700, 527 ]; type: functional, organism-based
[4] = target: T2, Tyrosine-protein phosphatase non-receptor type 7 (Homo sapiens, UniProt P35236); type: functional
T2 sequence (P35236 whole entry): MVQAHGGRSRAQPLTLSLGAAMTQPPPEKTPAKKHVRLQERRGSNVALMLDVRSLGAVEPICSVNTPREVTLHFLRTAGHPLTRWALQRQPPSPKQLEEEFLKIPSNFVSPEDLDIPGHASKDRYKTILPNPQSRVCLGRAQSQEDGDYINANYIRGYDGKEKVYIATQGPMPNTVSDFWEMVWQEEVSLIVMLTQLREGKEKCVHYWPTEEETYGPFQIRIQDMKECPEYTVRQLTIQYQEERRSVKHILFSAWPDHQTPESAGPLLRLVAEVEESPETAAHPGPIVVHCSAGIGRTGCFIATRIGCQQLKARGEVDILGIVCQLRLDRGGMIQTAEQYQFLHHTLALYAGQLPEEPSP

[5] = target: Glyceraldehyde-3-phosphate dehydrogenase (Homo sapiens, UniProt P04406)
Chain of Glyceraldehyde-3-phosphate dehydrogenase (P04406 whole entry): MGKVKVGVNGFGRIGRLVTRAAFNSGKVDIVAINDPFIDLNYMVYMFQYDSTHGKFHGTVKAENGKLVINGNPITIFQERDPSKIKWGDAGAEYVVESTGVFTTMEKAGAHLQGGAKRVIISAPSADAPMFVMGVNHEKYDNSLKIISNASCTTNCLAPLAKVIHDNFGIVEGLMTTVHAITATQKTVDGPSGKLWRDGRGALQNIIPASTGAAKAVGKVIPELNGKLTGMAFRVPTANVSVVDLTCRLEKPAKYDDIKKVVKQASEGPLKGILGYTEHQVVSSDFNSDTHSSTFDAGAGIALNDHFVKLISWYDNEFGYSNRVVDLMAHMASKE

[6] = target: Heat shock cognate 71 kDa protein (Homo sapiens, UniProt P11142); experiment: In Vitro Hsc70 Dose Response Fluorescence Polarization Assay. [Related pubchem assays: 1072 ]
Chain of Heat shock cognate 71 kDa protein (P11142 whole entry): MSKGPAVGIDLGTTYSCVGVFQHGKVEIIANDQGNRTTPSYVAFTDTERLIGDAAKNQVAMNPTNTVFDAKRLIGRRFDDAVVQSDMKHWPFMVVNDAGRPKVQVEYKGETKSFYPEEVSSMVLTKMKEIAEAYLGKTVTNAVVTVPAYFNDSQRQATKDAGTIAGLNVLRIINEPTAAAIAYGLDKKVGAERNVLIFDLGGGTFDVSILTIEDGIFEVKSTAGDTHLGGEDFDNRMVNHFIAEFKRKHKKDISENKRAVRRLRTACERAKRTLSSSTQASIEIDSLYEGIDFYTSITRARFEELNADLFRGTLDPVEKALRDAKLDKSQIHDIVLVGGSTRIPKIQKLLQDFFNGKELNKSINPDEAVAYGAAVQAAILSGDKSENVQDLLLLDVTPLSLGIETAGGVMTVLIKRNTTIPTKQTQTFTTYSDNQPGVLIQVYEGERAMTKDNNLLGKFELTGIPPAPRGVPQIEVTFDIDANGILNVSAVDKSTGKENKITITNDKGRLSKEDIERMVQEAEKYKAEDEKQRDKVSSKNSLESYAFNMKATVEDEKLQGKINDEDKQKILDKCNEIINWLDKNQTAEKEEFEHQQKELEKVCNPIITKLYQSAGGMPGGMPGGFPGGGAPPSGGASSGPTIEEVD

[7] = target: Heat shock 70 kDa protein 1A (Homo sapiens, UniProt P0DMV8); experiment: Hsp70 inhibitors, SAR follow-up, biochemical, fluorescence polarization (AID 1072)
Chain of Heat shock 70 kDa protein 1A (P0DMV8 whole entry): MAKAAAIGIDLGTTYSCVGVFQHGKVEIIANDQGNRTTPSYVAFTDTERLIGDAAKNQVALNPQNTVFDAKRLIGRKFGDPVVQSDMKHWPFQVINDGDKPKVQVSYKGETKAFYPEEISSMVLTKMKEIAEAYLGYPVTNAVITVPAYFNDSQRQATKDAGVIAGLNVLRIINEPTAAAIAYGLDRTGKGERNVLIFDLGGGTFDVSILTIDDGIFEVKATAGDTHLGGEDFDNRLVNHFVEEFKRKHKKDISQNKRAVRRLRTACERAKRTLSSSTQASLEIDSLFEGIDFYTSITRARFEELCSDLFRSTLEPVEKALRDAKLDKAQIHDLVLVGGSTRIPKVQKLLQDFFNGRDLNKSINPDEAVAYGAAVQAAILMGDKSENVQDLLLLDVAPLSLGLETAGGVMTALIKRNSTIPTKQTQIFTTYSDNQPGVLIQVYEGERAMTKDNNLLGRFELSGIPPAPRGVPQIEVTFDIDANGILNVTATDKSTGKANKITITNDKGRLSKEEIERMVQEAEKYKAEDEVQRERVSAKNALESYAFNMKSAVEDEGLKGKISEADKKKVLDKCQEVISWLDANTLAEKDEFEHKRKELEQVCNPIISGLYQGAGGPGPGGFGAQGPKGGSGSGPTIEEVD

[8] = target: T3, Dual specificity protein phosphatase 6 (Rattus norvegicus, UniProt Q64346)
T3 sequence (Q64346 whole entry): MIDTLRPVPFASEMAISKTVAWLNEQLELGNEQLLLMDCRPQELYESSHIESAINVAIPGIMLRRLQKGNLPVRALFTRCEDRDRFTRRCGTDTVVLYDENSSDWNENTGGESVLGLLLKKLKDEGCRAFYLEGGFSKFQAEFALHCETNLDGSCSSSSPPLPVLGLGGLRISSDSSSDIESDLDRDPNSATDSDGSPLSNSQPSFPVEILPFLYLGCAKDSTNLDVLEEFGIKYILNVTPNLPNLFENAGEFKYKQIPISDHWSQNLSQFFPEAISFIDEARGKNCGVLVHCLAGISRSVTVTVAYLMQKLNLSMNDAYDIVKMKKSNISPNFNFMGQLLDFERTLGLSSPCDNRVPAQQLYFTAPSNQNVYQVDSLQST

[9] = target: T3, Dual specificity protein phosphatase 6; type: functional
MDA-MB-435 = experiment: cells; type: functional, cell-based; conditions: Homo sapiens
cells = type: functional, cell-based; conditions: PPC-1
[10] = target: Beta-2 adrenergic receptor (Homo sapiens, UniProt P07550); experiment: beta2AR agonists driving receptor internalization, dose response, cell-based, FAP fluorogen, flow cytometry, cherry pick 1 (AID 588763); type: functional
Chain of Beta-2 adrenergic receptor (P07550 whole entry): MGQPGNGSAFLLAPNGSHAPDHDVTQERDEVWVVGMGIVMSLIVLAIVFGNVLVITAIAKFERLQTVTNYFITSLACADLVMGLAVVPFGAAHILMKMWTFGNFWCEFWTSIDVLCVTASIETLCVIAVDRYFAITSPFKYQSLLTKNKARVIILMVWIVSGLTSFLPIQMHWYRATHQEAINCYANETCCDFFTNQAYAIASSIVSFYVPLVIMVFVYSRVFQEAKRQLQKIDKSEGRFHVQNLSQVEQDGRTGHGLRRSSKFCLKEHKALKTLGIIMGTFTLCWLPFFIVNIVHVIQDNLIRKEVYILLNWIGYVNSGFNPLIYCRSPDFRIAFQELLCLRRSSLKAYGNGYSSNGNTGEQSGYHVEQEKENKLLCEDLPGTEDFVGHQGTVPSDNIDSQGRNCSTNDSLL

[11] = target: Cyclin-dependent kinase 5/CDK5 activator 1 (Homo sapiens, UniProt Q00535); experiment: CDK5/p35 kinase inhibitors, dose response, biochemical, cherry-picked samples, set 2 (AID 504545)
Chain of Cyclin-dependent kinase 5/CDK5 activator 1 (Q00535 whole entry): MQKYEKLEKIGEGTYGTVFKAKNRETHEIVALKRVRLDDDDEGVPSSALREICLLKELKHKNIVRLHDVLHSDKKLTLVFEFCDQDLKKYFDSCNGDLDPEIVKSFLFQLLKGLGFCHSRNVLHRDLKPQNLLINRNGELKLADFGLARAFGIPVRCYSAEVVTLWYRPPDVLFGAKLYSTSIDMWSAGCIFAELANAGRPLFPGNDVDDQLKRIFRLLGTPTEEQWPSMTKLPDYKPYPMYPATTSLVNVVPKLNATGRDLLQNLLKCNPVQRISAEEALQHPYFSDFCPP
Chain of Cyclin-dependent kinase 5/CDK5 activator 1 (Q15078 whole entry, further chain): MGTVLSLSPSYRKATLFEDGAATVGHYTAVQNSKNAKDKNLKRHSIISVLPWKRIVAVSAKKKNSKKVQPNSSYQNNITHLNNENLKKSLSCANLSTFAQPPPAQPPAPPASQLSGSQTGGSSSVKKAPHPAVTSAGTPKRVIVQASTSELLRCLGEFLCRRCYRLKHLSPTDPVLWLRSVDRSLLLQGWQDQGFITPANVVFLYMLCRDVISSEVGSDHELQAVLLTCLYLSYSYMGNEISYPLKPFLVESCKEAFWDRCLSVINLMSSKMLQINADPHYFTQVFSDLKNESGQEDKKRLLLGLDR

Chain of G-protein coupled receptor 35 (Q9HC97 whole entry): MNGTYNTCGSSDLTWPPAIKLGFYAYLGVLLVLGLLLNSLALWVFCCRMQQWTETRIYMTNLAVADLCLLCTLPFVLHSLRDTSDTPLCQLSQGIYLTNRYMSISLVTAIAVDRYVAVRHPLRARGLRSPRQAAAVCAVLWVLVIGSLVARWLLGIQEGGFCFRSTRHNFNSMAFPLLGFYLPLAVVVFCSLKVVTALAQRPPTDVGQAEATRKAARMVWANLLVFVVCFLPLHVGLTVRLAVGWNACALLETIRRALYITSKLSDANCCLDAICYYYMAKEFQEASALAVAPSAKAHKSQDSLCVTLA

For N#C/C(=C\c1ccc(N2CCCCC2)o1)C(N)=O, the IC50 [1] was 6.55 µM (active), the IC50 [2] was > 55.7 µM (not active) and the IC50 (Insulin-degrading enzyme) was 8.72 µM (active). For the same molecule, the EC50 [3] was > 100 µM (active).

For Cc1ccc(C)c(S(=O)(=O)c2nnn3c2[nH]c(=O)c2sccc23)c1, the IC50 (Staphylococcus aureus) was 5.17 µM (active).

For O=C(O)c1ccc2c(c1)C1C=CCC1C(C(=O)O)N2 (stereo not given), the IC50 [4] was 2.51 µM (active), the IC50 [5] was > 100 µM (not active) and the IC50 [6] was > 100 µM (not active). For the same molecule, the IC50 [7] was 2.42 µM (active), the IC50 [8] was 17.8 µM (active) and the IC50 [9] was 15.5 µM (active).

With CC(Sc1nc(-c2ccccc2)cc(C(F)(F)F)n1)C(=O)N1CCCC1 (stereo not given) the IC50 (MDA-MB-435) was > 10 µM (inactive), the IC50 (cells) was > 10 µM (inactive) and the EC50 [10] was 0.243 µM (active).

In the case of CC(C)Oc1ccc(NC(=O)Oc2ccccc2)cc1, the AC50 [11] is reported as 129 µM (active).
